Experimental data reported in patent publication US11230711B2, “Inhibition of LET7I as a means to enhance the protective effect of progesterone against stroke” (UNIVERSITY OF NORTH TEXAS HEALTH SCIENCE CENTER, priority 2017, dated 2022).

Experiments:
[1] = test system: C57BL/6J mice; assay: Ischemic lesion / infarct size by TTC staining after middle cerebral artery occlusion (MCAo); format: in vivo, mouse
Source text: Mice will receive bilateral ovariectomy (OVX) using a dorsal approach under isoflurane anesthesia. A small cut is made through skin and abdominal muscles in left and right lateral abdomen. The arteries to left and right ovaries will be ligated, and ovaries will be cut. The muscles and skin will be sutured with 4-0 Vicryl absorbable suture.
Fused steroid pellets will be made using the flash-melt method described by Ratka and Simpkins. The pellets (containing P4 or control) will be implanted subcutaneously into abdominal area.
MCAo will be used to induce transient focal cerebral ischemia (as previously described). Briefly, under isoflurane anesthesia, a mid line incision will be made on the neck. Common carotid artery (CCA), external carotid artery (ECA) and internal carotid artery (ICA) will be dissected from the connective tissue. A silicon coated 6-0 nylon monofilament will be inserted into the left ECA and advanced till it occludes the origin of MCA. The MCA will be occluded for 60 minutes and then reperfusion attained by withdrawing the suture.
ICV injections will be performed as described by Sananbenesi et al.. In brief, mice will be anaesthetized and affixed with a cannula ipsilateral to the side of surgery (coordinates from Bregma: AP1/4_0.4 mm, L1/4_1.15 mm, V1/4_2.0 mm). […]

[2] = test system: primary cortical astrocytes; assay: BDNF release from primary cortical astrocytes, BDNF in situ ELISA; format: cell-based, mouse
Protocol: To define the amount of endogenous BDNF released, we will modify the ELISA in situ protocol developed by Promega. A 96-well Nunc MaxiSorp surface polystyrene flat-bottom immunoplate was precoated with an anti-BDNF monoclonal antibody [diluted 1:1,000 in coating buffer (25 mM sodium bicarbonate and 25 mM sodium carbonate, pH 9.7)]. After rinsing off unbound antibody with TBS-T buffer [20 mM Tris-HCl (pH 7.6), 150 mM NaCl and 0.05% (v/v) Tween-20] and blocking the plate to minimize nonspecific binding, the culture media was added to the plate for 2 hrs to equilibrate the cell growth environment. […] The amount of specifically bound polyclonal antibody was then detected through the use of the anti-IgY-horseradish peroxidase (HRP) tertiary antibody (final concentration=0.5 μg/mL), which when exposed to the chromogenic substrate (TMB reagent; Promega), changes color in proportion to the amount of BDNF present in the sample. The color intensity was quantified by measuring the absorbance at 450 nm with a Viktor3 ELISA plate reader (Perkin Elmer). […] The amount of specifically bound polyclonal antibody was then detected through the use of the anti-IgY-horseradish peroxidase (HRP) tertiary antibody, which when exposed to the chromogenic substrate (TMB reagent, Promega), changes color in proportion to the amount of BDNF present in the sample. […]

[3] = test system: primary cortical astrocytes; details: 10 nM P4; reported in reference (10); cited from earlier work

Which “stroke-induced lesion size (ischemic injury), TTC stain” value ([1]; Example 1, MCAo mice, P4 pellet, ICV Let-7i antagomir, FIG. 6) does the source give for `CC(=O)[C@H]1CC[C@H]2[C@@H]3CCC4=CC(=O)CC[C@]4(C)[C@H]3CC[C@]12C` [P4, progesterone] here?
The value was “no statistically significant effect”.

And the “relative infarct size (ischemic injury), TTC staining” value ([1]; Example 2, 24 h after MCAo, vs cholesterol+scrambled, FIG. 12B)?
Its value is “did not”.

And the “BDNF release in P4-treated cultures” value ([2]; astrocyte cultures, control cultures as little as 2 pg/ml)?
The value was about 250 pg/mL.

What about the “P4-induced BDNF release after OGD” value ([2]; primary cortical astrocytes exposed to one-hour OGD, FIG. 8B) of the same compound?
Its value is “compromised”.

What about the “release of BDNF from astrocytes” value [3] of the same compound?
The value was “maximal release of BDNF”.
